“Also recorded” adds a separate entry of the source.
Experiments:
Type in all cases: cell-based
MOLM16 cells = assay: MTT assay (number of live cells), MOLM16 cells, single inhibitors and combination, Compusyn CI; conditions: 48 hours
Experimental: (§1) General experimental procedure: 10,000 (MOLM16) or 20,000 (EOL1) cells were seeded per well in 96-well plates. After culturing overnight, AZD1208 and/or Pladienolide B/SRPIN340 were added to wells in quadruplicates at 5 different concentrations. Different ratios between AZD1208 and Pladienolide B were tried in MOLM16 and EOL1 cells. At 48 hours the MTT metabolism indicative of number of live cells was measured by MTT assay (Promega, Cat: G4000). The resulting values were used to evaluate the Fa (fraction affected) values, which were plugged into the Compusyn software to calculate the combination indices (CI values) at ED50, ED75, ED90 and ED95 (ED—Effective dose of combination).
These values of drug dose and effect (fraction of cells affected by the treatment—FA values) were input into the Compusyn software to estimate the interaction between the two drugs.

EOL1 cells = assay: MTT assay (number of live cells), EOL1 cells, single inhibitors and combination, Compusyn CI; conditions: for Effect (fraction of cells affected, FA): 48 hours
Experimental: as §1
To further confirm the finding in MOLM16 cells, it was tested whether the combination of AZD1208 and Pladienolide B is synergistic in another AML cell line—EOL1. Different ratios between AZD1208 and Pladienolide B were tested to identify the ideal ratio that provides maximum synergy.

[1] = test system: SR protein phosphorylation; assay: Western blot using phospho-SR protein antibody; conditions: MOLM16 and EOL1 cells, versus DMSO treated controls
Experimental: MOLM16 and EOL1 cells were treated with AZD1208 or SRPIN340 for indicated concentration and time. Cells lysates from treated cells were used for western blot analysis.
Phosphorylation of splicing factors is known to play a role in regulation of splicing. Phosphorylation of splicing factors called serine arginine rich proteins (SR proteins) is known to regulate their function and localization. Serine arginine rich protein kinases (SRPK1 and SRPK2) phosphorylate these proteins and inhibition of SRPK activity using the small molecule modulator SRPIN340 leads to reduction in phosphorylation. The level of SR protein phosphorylation can be visualized using phospho-SR protein antibody. It was investigated to determine if PIM kinases regulate SRPK activity to indirectly lead to changes in splicing. […] Thus, it was concluded that the SRPK activity was not affected by PIM kinase inhibition.

MCL1 splice variants = assay: Taqman qRT-PCR for MCL1 splice variants in MOLM16 cells; conditions: MOLM16, 20 μM, 24 hours
Excerpt: Control=DMSO treated. […] Arrow indicate bands that change after AZD1208 treatment.
A few targets from the microarray data were chosen, that being, ones that were affected by PIM kinase inhibition. The procedure was manual curation of data, followed by reference seq analysis of splice variants to determine avalibilty of sequence information. Initially, changes in splice variants of a known apoptotic regulator, MCL1 were validated. The smaller isoform of MCL1 is pro-apototic, while the longer isoform has anti-apototic functions.

CCC(O)C(C)C1OC1CC(C)/C=C/C=C(\C)C1OC(=O)CC(O)CCC(C)(O)C(OC(C)=O)/C=C/C1C (stereo not drawn) [Pladienolide B, pladienolide B]
Effect (fraction of cells affected, FA) (MOLM16 cells; MOLM16, Trial 1, 0.002 μM): 0.517 | Effect (fraction of cells affected, FA) (MOLM16 cells; MOLM16, Trial 1, 0.004 μM): 0.599 | Effect (fraction of cells affected, FA) (MOLM16 cells; MOLM16, Trial 1, 0.006 μM): 0.711 | Effect (fraction of cells affected, FA) (MOLM16 cells; MOLM16, Trial 1, 0.008 μM): 0.726 | Effect (fraction of cells affected, FA) (MOLM16 cells; MOLM16, Trial 1, 0.01 μM): 0.757 | Effect (fraction of cells affected, FA) (MOLM16 cells; MOLM16, Trial 2, 0.002 μM): 0.487 | Effect (fraction of cells affected, FA) (MOLM16 cells; MOLM16, Trial 2, 0.004 μM): 0.676 | Effect (fraction of cells affected, FA) (MOLM16 cells; MOLM16, Trial 2, 0.006 μM): 0.752 | Effect (fraction of cells affected, FA) (MOLM16 cells; MOLM16, Trial 2, 0.008 μM): 0.821 | Effect (fraction of cells affected, FA) (MOLM16 cells; MOLM16, Trial 2, 0.01 μM): 0.862 | Effect (fraction of cells affected, FA) (MOLM16 cells; MOLM16, Trial 3, 0.002 μM): 0.393 | Effect (fraction of cells affected, FA) (MOLM16 cells; MOLM16, Trial 3, 0.004 μM): 0.607 | Effect (fraction of cells affected, FA) (MOLM16 cells; MOLM16, Trial 3, 0.006 μM): 0.696 | Effect (fraction of cells affected, FA) (MOLM16 cells; MOLM16, Trial 3, 0.008 μM): 0.749 | Effect (fraction of cells affected, FA) (MOLM16 cells; MOLM16, Trial 3, 0.01 μM): 0.814 | relative sensitivity of the cells to the two drugs (EOL1 cells; EOL1, Trial 1): more sensitive to Pladienolide B than AZD1208 | Effect (fraction of cells affected, FA) (EOL1 cells; EOL1, Trial 1, 0.001 μM): 0.315 | Effect (fraction of cells affected, FA) (EOL1 cells; EOL1, Trial 1, 0.002 μM): 0.633 | Effect (fraction of cells affected, FA) (EOL1 cells; EOL1, Trial 1, 0.003 μM): 0.890 | Effect (fraction of cells affected, FA) (EOL1 cells; EOL1, Trial 1, 0.004 μM): 0.957 | Effect (fraction of cells affected, FA) (EOL1 cells; EOL1, Trial 1, 0.005 μM): 0.982 | Effect (fraction of cells affected, FA) (EOL1 cells; EOL1, Trial 2, 0.0005 μM): 0.060 | Effect (fraction of cells affected, FA) (EOL1 cells; EOL1, Trial 2, 0.001 μM): 0.351 | Effect (fraction of cells affected, FA) (EOL1 cells; EOL1, Trial 2, 0.0015 μM): 0.528 | Effect (fraction of cells affected, FA) (EOL1 cells; EOL1, Trial 2, 0.002 μM): 0.706 | Effect (fraction of cells affected, FA) (EOL1 cells; EOL1, Trial 2, 0.0025 μM): 0.820 | Effect (fraction of cells affected, FA) (EOL1 cells; EOL1, Trial 3, 0.0005 μM): 0.095 | Effect (fraction of cells affected, FA) (EOL1 cells; EOL1, Trial 3, 0.001 μM): 0.360 | Effect (fraction of cells affected, FA) (EOL1 cells; EOL1, Trial 3, 0.0015 μM): 0.542 | Effect (fraction of cells affected, FA) (EOL1 cells; EOL1, Trial 3, 0.002 μM): 0.667 | Effect (fraction of cells affected, FA) (EOL1 cells; EOL1, Trial 3, 0.0025 μM): 0.814

O=C(Nc1cc(C(F)(F)F)ccc1N1CCCCC1)c1ccncc1 [SRPIN340, N-[2-(1-Piperidinyl)-5-(trifluoromethyl)phenyl]-4-pyridinecarboxamide]
Effect (fraction of cells affected, FA) (MOLM16 cells; MOLM16, SRPIN340 testing Trial 1, 5 μM): 0.004 | Effect (fraction of cells affected, FA) (MOLM16 cells; MOLM16, SRPIN340 testing Trial 1, 10 μM): 0.014 | Effect (fraction of cells affected, FA) (MOLM16 cells; MOLM16, SRPIN340 testing Trial 1, 20 μM): 0.385 | SR protein phosphorylation [1]: reduction in phosphorylation signal; also recorded: phosphorylation of SR proteins changes | changes in MCL1 splicing (MCL1 splice variants): Changes in MCL1 splicing were not observed

From patent US10842785B2, “PIM kinase inhibitors in combination with RNA splicing modulators/inhibitors for treatment of cancers” (UNIVERSITY OF MARYLAND, BALTIMORE COUNTY, priority 2016, dated 2020)
